In one data set the test system is SARS-CoV-2. Briefly: Example 1B: immunofluorescence (anti-dsRNA) quantification of SARS-CoV-2-infected Vero E6 cells. The class given is cell-based. The note with it: at 10 μM, MOI 0.4, 24 h (FIG. 3). The method, then: FIG. 3 represents the experiment scheme of a SARS-CoV-2 infection of Vero E6 cells at an MOI of 0.4 and the percentage of infected cells assessed by immunofluorescence (IF) in the presence of increasing concentrations of alisporivir.
The anti-SARS-CoV-2 effectiveness of alisporivir was confirmed by immunofluorescence. Vero E6 cells were infected by SARS-CoV-2 at an MOI of 0.4 for 2 h in the presence of increasing concentrations of alisporivir (1, 5 and 10 μM). After virus removal, infected cells were incubated for 24 h in the presence of alisporivir and immunostained with an anti-double-stranded-RNA (dsRNA) antibody. Infected cells were quantified using ImageJ software.

Data set [1] deals with SARS-Cov-2 (isolate from patient infected in Paris).
The subject of data set [2] is clinical isolate of SARS-CoV-2.
The subject of another data set is SARS-Cov-1. The settings on record: cited from earlier work.
Data set [3] is described as follows: in vitro. The note with it: African green monkey.
The nature of data set [4]: in vitro. The note with it: African green monkey. This is another data set of the same source.

A word on the EC50: it is the concentration that produces a half-maximal response. For orientation: EC90 means the concentration at which the effect reaches the 90% level.

Bounds are passed on as bounds.

`C/C=C/C[C@@H](C)[C@@H](O)[C@H]1C(=O)N[C@@H](CC)C(=O)N(C)[C@H](C)C(=O)N(CC)[C@@H](C(C)C)C(=O)N[C@@H](C(C)C)C(=O)N(C)[C@@H](CC(C)C)C(=O)N[C@@H](C)C(=O)N[C@H](C)C(=O)N(C)[C@@H](CC(C)C)C(=O)N(C)[C@@H](CC(C)C)C(=O)N(C)[C@@H](C(C)C)C(=O)N1C` [alisporivir, [D-MeAla]3-[EtVal]4-CsA]: the “inhibition of the number of SARS-CoV-2-infected cells (immunofluorescence)” value in the data set with SARS-CoV-2 is listed as “complete inhibition”. In data set [1], the EC50 amounted to 540 nM and the “percentage of inhibition of SARS-CoV-2 RNA production in cell culture supernatant” value is reported as > 90%. Moreover, the cytotoxicity result in the data set on VeroE6 cells is “not cytotoxic”. Besides, the “maximum viral RNA reduction” value in data set [2] came out at 2 log 10. Moreover, the therapeutic index entry in data set [2] (clinical isolate of, 2 h) is listed as “more than 43”. In data set [2] (clinical isolate of, 48 h), this compound displayed an EC50 of 460 nM and an EC90 of 3100 nM. For the same compound, the “fold higher EC50 against SARS-Cov-1 than for HCV replicon” value in the data set on SARS-Cov-1 is given as 10.-50 fold. In addition, the EC50 in the data set on SARS-Cov-1 (read-out: EC50 in vitro against different SARS-Cov-1) is 2000 to 10000 nM. Moreover, the selectivity ratio in “in vitro [3]” is > 37. Besides, in the data set “in vitro [4]”, the CC50 was > 20000 nM.

These data come from patent US20230149504A1, “A[…] USE IN HUMAN VIRAL INFECTIONS” (DEBIOPHARM INTERNATIONAL SA, priority 2020, published 2023).
